From US20060122240A1, “Benzotriazoles and methods of prophylaxis or treatment of metabolic-related disorders thereof” (Arena Pharmaceuticals, Inc., priority 2002, published 2006)
Entries after “also recorded” stand apart in the source; their conditions may differ. Where two headings read alike, the source gives them in different places.

Key:
Type in all cases: cell-based
hRUP38 = target: T1, hRUP38 (Homo sapiens, UniProt P49019); test: Adenylyl cyclase / cAMP Whole Cell assay in CHO cells stably transfected with hRUP38
T1 construct: expressed in transfected cells
T1 sequence (P49019 whole entry K94N/T173P/F198L/H253R/I317M/I346M): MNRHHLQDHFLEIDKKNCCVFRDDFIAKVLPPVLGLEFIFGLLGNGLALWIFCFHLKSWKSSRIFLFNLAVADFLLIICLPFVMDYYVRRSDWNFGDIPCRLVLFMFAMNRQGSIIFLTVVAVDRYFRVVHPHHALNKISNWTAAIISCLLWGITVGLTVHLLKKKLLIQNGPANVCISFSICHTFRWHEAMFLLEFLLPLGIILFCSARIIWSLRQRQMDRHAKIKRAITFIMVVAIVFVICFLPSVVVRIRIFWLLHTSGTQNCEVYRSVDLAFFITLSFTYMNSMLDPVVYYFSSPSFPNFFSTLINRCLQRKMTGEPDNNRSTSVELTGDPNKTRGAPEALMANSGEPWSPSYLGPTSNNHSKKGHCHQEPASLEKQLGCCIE
Description: A modified Flash Plate™ Adenylyl Cyclase kit (New England Nuclear; Cat. No. SMP004A) was utilized for direct identification of candidate compounds as agonists to hRUP38 (Seq. Id. Nos. 1 & 2) or hRUP25 (Seq. Id. Nos. 3 & 4) in accordance with the following protocol:
CHO cells stably transfected with hRUP38 were harvested from flasks via non-enzymatic means. The cells were washed in PBS and resuspended in the manufacturer's Assay Buffer. […] To these wells, 100,000 cells in 50 μl of Assay Buffer were added and the mixture was then incubated for 30 minutes at room temperature, with gentle shaking. Following the incubation, 100 μl of Detection Buffer was added to each well, followed by incubation for 2-24 hours. Plates were counted in a Wallac MicroBeta™ plate reader using “Prot. #31” (as per manufacturer instructions).

hRUP25 = target: T2, hRUP25 (Homo sapiens, UniProt Q8TDS4); test: Adenylyl cyclase assay in CHO cells expressing hRUP25; settings: FIG. 1 screening data
T2 construct: expressed in transfected cells; host or cells: CHO cells
T2 sequence (Q8TDS4 whole entry): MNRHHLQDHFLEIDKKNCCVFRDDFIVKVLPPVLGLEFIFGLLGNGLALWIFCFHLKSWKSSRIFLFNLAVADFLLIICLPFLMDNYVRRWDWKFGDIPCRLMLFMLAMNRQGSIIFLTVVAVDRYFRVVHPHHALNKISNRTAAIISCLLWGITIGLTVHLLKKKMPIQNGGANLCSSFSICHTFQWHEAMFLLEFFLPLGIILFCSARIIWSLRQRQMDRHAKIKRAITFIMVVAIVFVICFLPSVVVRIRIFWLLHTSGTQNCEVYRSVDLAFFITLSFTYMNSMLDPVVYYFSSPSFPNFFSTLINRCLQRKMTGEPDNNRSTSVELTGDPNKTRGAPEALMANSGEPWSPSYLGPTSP
From the text: FIG. 1. FIG. 1 presents screening data via adenylyl cyclase assay for hRUP38. […] 1-Isopropyl-1H-benzotriazole-5-carboxylic acid has no effect on CHO cells expressing hRUP25.
A modified Flash Plate™ Adenylyl Cyclase kit (New England Nuclear; Cat. No. SMP004A) was utilized for direct identification of candidate compounds as agonists to hRUP38 (Seq. Id. Nos. 1 & 2) or hRUP25 (Seq. Id. Nos. 3 & 4) in accordance with the following protocol: […]

primary human adipocytes = test: Inhibition of isoproterenol stimulated lipolysis in human subcutaneous adipocytes; settings: isoproterenol 100 nM, adipocyte primary cultures from human subcutaneous fat, FIG. 2

EC50 (hRUP38; average of seven (7) trials, read-out: hRUP38 (EC50) cAMP Whole Cell): 388 nM
EC50 (hRUP38; inhibition of forskolin stimulated cAMP, hRUP38-expressing CHO cells, read-out: EC50, adenylyl cyclase assay for hRUP38 (FIG. 1)): 166 nM
effect on CHO cells expressing hRUP25 (hRUP25): no effect
Compound: CC(C)n1nnc2cc(C(=O)O)ccc21 [Example 6.1, 1-Isopropyl-1H-benzotriazole-5-carboxylic acid]
inhibition of isoproterenol stimulated lipolysis (primary human adipocytes): dose-dependent manner comparable to that of nicotinic acid; also recorded: dose-dependant manner comparable to that of nicotinic acid
